# Data: article PMC4914440 (Pharmacological research, 2016)
# Several values for one entry are separate records, joined by “and”; a condition that tells them apart may be missing. Equal values may be shown once.
# Assays:
# [1] = target: T1, 5-HT2A receptor (Homo sapiens, UniProt P28223); test: Intracellular calcium assay of Gq signaling, HEK293 cells; type: cell-based
# [2] = target: M3 muscarinic receptor (Homo sapiens, UniProt P20309); test: Intracellular calcium assay, untransfected HEK293 cells with endogenous receptor; type: cell-based
# Chain of M3 muscarinic receptor (P20309 whole entry): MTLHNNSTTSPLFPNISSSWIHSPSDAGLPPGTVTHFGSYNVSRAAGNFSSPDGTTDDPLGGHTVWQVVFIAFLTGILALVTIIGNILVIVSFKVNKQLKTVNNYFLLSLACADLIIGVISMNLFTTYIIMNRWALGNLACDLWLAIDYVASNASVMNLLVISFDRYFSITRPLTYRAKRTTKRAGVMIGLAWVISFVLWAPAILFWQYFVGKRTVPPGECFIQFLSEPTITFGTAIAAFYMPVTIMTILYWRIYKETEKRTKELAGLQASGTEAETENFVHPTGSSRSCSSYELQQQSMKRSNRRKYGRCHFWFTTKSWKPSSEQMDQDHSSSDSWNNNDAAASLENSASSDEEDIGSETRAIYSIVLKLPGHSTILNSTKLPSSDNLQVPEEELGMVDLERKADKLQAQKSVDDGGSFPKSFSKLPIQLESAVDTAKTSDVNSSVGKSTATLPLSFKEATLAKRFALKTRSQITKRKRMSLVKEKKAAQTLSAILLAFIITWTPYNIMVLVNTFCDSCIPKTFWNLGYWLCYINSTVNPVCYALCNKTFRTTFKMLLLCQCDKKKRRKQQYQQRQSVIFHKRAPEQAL
# [3] = test system: untransfected CHO cells; test: Intracellular calcium assay, control cells; type: cell-based; settings: data not shown
# [4] = target: T2, 5-HT6 receptor (Rattus norvegicus, UniProt P31388); test: cAMP-Glo assay of Gs signaling, HeLa cells; type: cell-based; settings: 30 μM
# T2 sequence (P31388 whole entry): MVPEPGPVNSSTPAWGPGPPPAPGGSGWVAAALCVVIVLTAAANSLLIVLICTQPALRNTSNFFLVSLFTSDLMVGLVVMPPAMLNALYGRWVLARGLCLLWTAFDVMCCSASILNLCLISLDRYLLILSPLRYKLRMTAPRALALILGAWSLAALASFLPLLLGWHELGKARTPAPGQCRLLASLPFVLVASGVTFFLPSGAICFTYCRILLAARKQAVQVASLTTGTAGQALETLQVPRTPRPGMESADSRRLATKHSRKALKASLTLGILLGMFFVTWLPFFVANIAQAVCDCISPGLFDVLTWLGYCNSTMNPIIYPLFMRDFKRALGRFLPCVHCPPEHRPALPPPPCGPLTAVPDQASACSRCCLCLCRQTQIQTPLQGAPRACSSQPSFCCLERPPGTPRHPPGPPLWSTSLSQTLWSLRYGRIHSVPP
# [5] = test system: untransfected HeLa cells; test: cAMP-Glo assay, control cells; type: cell-based, human; settings: efavirenz 30 μM, clozapine 30 μM, 5-HT 1 μM
# [6] = test system: endogenous β-adrenergic receptor; test: cAMP-Glo assay, untransfected HeLa cells stimulated with; type: cell-based, human
# [7] = target: T1, 5-HT2A receptor; test: Prolonged; type: cell-based; settings: for antagonism of 100 nM 5-HT calcium response: 10 μM efavirenz
# [8] = target: T1, 5-HT2A receptor; test: Prolonged; type: cell-based; settings: 3 day exposure to 30 μM
# [9] = target: MAO-A (Homo sapiens, UniProt P21397); test: Inhibition of monoamine oxidase A activity, kynuramine substrate; type: biochemical; settings: 10 μM
# Chain of MAO-A (P21397 whole entry): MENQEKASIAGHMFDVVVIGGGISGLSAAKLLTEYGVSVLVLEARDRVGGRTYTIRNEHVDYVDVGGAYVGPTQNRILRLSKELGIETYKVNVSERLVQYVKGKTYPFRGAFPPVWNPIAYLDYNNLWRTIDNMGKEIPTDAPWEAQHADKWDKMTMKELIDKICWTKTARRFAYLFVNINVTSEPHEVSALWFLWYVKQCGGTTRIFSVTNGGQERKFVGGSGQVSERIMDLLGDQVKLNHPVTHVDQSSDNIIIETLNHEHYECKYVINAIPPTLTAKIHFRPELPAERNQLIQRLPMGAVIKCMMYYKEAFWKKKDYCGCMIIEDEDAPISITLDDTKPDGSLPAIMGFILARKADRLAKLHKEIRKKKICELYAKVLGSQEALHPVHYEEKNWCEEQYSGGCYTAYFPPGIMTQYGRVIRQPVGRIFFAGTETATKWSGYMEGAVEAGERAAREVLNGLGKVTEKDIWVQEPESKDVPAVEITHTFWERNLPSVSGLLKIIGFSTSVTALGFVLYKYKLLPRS
# [10] = target: M1 muscarinic receptor (Homo sapiens, UniProt P11229)
# Chain of M1 muscarinic receptor (P11229 whole entry): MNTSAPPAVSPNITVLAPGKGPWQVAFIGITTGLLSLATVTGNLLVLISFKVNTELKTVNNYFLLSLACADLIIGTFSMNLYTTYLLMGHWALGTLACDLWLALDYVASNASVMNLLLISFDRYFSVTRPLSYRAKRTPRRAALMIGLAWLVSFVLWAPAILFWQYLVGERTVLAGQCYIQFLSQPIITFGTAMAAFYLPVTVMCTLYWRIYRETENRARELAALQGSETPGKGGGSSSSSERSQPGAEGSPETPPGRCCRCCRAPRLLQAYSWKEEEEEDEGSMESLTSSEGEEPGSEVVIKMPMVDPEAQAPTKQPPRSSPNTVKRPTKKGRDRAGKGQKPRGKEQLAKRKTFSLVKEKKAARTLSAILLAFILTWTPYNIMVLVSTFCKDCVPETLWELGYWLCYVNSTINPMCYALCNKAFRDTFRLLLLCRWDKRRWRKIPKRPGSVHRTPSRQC
# [11] = target: T3, h5-HT2C (Homo sapiens, UniProt P28335); settings: 10 μM efavirenz; cited from earlier work
# T3 sequence (P28335 33-458): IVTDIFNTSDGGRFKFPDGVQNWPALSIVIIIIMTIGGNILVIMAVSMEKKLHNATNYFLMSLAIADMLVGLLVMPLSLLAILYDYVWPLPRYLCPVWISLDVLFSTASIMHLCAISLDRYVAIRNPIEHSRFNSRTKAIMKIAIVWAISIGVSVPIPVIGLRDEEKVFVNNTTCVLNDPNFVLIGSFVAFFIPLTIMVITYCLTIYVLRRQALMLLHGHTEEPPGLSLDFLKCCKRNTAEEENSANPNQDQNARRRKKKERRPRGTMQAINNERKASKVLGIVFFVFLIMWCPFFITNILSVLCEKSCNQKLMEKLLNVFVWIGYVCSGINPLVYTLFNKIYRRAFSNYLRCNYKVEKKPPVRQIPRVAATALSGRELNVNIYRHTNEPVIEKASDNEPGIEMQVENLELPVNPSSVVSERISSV
# [12] = test system: h5-HT1A; settings: 10 μM efavirenz; cited from earlier work
# [13] = cited from earlier work
# [14] = cited from earlier work; remark: listed apart in the source
# [15] = cited from earlier work; remark: listed apart in the source
# [16] = test system: GABAA receptor; settings: cited from earlier work
# [17] = test system: serotonin transporter (SERT); settings: 10 μM; cited from earlier work
# [18] = test system: DAT; settings: cited from earlier work
# [19] = cited from earlier work; remark: listed apart in the source
# [20] = cited from earlier work; remark: listed apart in the source
# [21] = test system: dopamine receptors; settings: 10 μM; cited from earlier work
# [22] = test system: NMDA receptors; settings: 10 μM; cited from earlier work
# [23] = test system: muscarinic receptors; settings: 10 μM; cited from earlier work
# [24] = test system: HIV-1; settings: cited from earlier work
# [25] = Estimated brain concentration, authors' calculation
# [26] = target: T1, 5-HT2A receptor; test: Competition radioligand binding, concentration-response
# [27] = target: T4, 5-HT2C receptor (Homo sapiens, UniProt P28335); test: as above
# T4 sequence (P28335 33-458): T3 sequence (P28335 33-458)
# [28] = target: T2, 5-HT6 receptor; test: as above
# [29] = target: h5-HT2B (Homo sapiens, UniProt P41595); test: Radioligand displacement by a fixed drug concentration, [3H]LSD; settings: 10 μM efavirenz
# Chain of h5-HT2B (P41595 whole entry): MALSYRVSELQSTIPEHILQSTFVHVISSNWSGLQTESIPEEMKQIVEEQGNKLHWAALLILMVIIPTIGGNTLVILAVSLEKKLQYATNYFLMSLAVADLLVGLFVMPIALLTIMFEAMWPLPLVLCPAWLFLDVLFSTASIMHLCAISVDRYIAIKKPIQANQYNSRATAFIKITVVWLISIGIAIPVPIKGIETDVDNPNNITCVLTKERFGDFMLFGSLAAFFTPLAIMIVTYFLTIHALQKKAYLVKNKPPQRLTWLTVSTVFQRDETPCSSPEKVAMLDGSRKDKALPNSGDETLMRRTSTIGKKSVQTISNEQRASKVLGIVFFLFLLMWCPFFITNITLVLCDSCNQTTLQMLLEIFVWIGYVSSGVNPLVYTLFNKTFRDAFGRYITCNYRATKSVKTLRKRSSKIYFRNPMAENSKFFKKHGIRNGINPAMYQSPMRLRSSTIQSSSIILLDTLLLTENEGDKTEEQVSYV
# [30] = target: r5-HT6 (Rattus norvegicus, UniProt P31388); test: as above; settings: 10 μM efavirenz
# Chain of r5-HT6 (P31388 whole entry): as the sequence (P31388 whole entry) above
# [31] = target: h5-HT5A (Homo sapiens, UniProt P47898); test: as above; settings: 10 μM efavirenz
# Chain of h5-HT5A (P47898 whole entry): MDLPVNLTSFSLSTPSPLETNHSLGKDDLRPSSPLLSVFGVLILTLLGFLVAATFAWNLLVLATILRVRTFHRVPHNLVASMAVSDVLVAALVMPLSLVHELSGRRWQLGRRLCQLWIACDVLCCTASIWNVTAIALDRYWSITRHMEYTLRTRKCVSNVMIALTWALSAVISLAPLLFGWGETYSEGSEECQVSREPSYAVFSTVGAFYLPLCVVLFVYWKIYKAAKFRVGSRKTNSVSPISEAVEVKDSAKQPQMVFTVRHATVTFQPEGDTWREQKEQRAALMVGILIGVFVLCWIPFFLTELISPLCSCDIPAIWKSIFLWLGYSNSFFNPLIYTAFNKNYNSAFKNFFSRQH
# [32] = target: h5-HT7 (Homo sapiens, UniProt P34969); test: as above; settings: 10 μM efavirenz
# Chain of h5-HT7 (P34969 whole entry): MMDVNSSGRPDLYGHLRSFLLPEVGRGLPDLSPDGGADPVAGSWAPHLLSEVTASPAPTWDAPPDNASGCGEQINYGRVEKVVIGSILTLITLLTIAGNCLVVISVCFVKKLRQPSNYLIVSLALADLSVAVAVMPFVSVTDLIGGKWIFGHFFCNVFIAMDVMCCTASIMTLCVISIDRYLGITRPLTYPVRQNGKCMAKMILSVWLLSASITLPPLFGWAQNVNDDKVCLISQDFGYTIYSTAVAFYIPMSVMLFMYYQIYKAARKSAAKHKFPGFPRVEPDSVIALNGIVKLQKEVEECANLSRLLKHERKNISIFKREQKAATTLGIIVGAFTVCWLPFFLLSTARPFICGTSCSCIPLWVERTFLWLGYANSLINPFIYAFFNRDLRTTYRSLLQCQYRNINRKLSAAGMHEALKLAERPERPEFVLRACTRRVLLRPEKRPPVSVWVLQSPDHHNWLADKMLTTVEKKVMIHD
# [33] = target: gp5-HT4 (Cavia porcellus, UniProt O70528); settings: 10 μM efavirenz
# Chain of gp5-HT4 (O70528 whole entry): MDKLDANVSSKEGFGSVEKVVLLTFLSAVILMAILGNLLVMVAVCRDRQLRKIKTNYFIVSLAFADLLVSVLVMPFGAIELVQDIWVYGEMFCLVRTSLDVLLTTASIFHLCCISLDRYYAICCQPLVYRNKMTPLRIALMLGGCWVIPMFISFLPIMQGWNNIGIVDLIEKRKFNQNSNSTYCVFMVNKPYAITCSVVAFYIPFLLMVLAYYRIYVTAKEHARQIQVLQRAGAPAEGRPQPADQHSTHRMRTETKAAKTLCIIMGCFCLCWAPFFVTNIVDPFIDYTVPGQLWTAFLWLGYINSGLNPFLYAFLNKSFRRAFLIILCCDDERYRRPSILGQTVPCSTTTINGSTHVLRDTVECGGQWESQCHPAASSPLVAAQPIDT
# T1 sequence (P28223 whole entry): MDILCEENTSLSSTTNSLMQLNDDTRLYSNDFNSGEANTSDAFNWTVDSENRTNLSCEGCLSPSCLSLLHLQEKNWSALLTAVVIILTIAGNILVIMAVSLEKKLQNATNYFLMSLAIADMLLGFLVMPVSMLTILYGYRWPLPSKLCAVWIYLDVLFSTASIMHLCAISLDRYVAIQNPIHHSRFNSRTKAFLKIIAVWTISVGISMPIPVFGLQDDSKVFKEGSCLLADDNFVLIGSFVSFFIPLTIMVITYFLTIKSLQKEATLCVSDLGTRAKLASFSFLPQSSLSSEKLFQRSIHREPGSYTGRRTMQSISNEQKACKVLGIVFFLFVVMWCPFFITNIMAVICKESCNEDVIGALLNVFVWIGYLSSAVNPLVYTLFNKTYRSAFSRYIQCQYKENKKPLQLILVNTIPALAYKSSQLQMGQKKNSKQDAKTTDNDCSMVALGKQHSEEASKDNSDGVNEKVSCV
compound,measurement,setting,value
"O=C1Nc2ccc(Cl)cc2[C@@](C#CC2CC2)(C(F)(F)F)O1 [efavirenz, (4S)-6-chloro-4-(2-cyclopropylethynyl)-4-(trifluoromethyl)-2,4-dihydro-1H-3,1-benzoxazin-2-one]","inhibition of agonist responses (5-HT, TCB-2, α-Me-5HT)",[1]; 30 μM antagonist,significant inhibition
same,Schild plot slope,[1]; (±)-DOI as agonist,1.06 ± 0.054
same,Schild plot slope,[1]; LSD as agonist,1.2 ± 0.16
same,concentration partially suppressing ACh mediated activation,[2]; EC50 concentration of acetylcholine,≥ 10 µM
same,extent of block of ACh response,[2]; highest concentration that could be tested,unable to produce a complete block
same,effect alone on intracellular Ca2+ levels,[2]; untransfected HEK293 cells,had no effect
same,Gq-mediated response,[3],No Gq-mediated response
same,effect on 5-HT agonist effect,[4],completely overcame the agonist effect of 5-HT but also reduced activity to below basal levels
same,effect on basal cAMP,[4],lowers the basal levels of cAMP
same,change in cAMP levels,[5],no significant changes in cAMP levels
same,effect on (−)-epinephrine stimulated cAMP response,[6],failed to significantly modulate
same,antagonism of 100 nM 5-HT calcium response,[7]; cells pretreated 3 days with 30 μM 5-HT,49%
same,antagonism of 100 nM 5-HT calcium response,[7]; cells pretreated 3 days with 30 μM efavirenz,49%
same,antagonism of 100 nM 5-HT calcium response,[7]; cells pretreated 3 days with DMSO vehicle,48%
same,reduction of the 100 μM maximal 5-HT response,"[7]; 3 day exposure to 30 μM, vs 3 day vehicle",81%
same,decrease in receptor density (Bmax),[8],52%
same,decrease of MAO-A activity,[9],36 ± 1.7%
same,stimulation of Gq-coupling alone,[10],fails to stimulate
same,concentration suppressing the carbachol Gq response,[10]; EC50 concentration of carbachol,≥ 10 µM
same,displacement of specifically bound radioligand,[11],≥ 75%
same,interaction (radioligand displacement),[12],less pronounced or no detectable interaction
same,mean concentration in CSF,[13]; across studies,approximately 44 nM
same,CSF levels as % of plasma concentrations,[13],0.52%
same,bound to plasma proteins,[14],approximately 99.8%
same,incidence of hallucinations,"[15]; large clinical studies, 1008 patients",1.2%
same,frequency of hallucinations,"[15]; three clinical studies, 114–197 patients each",6–31%
same,effect on GABA-mediated chloride currents,[16],potentiated GABA-mediated chloride currents
same,effect on serotonin reuptake,[17],blocks reuptake of serotonin
same,transporter function,[18],functioned as a DAT and SERT blocker
same,substitution in rats trained to discriminate LSD from saline,[19],partially substituted for LSD
same,novel open field locomotor activity,[20],dose-dependently depressed novel open field locomotor activity
same,interaction,[21],did not have significant interactions
same,interaction,[22],did not have significant interactions
same,interaction,[23],did not have high affinity interactions
same,plasma levels needed to keep HIV-1 suppressed,[24],1 to 4 µg/mL
same,plasma levels resulting in NPAE,[24],greater than 2.74 μg/mL
same,plasma levels resulting in virologic failure,[24],< 1 μg/mL
same,estimated concentration in brain tissue,[25]; 44 nM ÷ 0.002,~22 µM
same,corresponding brain concentrations,"[25]; plasma >2.74 μg/mL, assuming rat brain accumulation 4.6",> 40 µM
same,Ki,"[26]; affinity (Ki), [3H]MSP competition",4.4 µM and 4.37 µM
same,pseudo Hill slope,[26]; competition binding,−1.39 ± −0.18
same,Ki,[27],1.7 ± 0.28 µM
same,pseudo Hill slope,[27]; competition binding,−1.22 ± −0.18
same,Ki,[28],2.2 ± 0.27 µM
same,pseudo Hill slope,[28]; competition binding,−1.36 ± −0.14
same,displacement of specifically bound radioligand,[29],greater than 50%
same,displacement of specifically bound radioligand,[30],≥ 75%
same,interaction (radioligand displacement),[31],less pronounced or no detectable interaction
same,interaction (radioligand displacement),[32],less pronounced or no detectable interaction
same,interaction (radioligand displacement),[33],less pronounced or no detectable interaction
